# Reference: patent publication US20160089434A1, “COMBINATIONS OF AN ANTI-PD-L1 ANTIBODY AND A MEK INHIBITOR AND/OR A BRAF INHIBITOR” (NOVARTIS AG, priority 2013, published 2016)
# Key:
# CT26 tumors = assay: CT-26 murine carcinoma syngeneic mouse model; type: in vivo, BALB/C mice; conditions: mono-therapy at 1 mg/kg orally once a day, after 18 days of treatment
# Method: Female BALB/C mice (Charles River) were used. The animals received food and water ad libitum and were housed in compliance normal standard of care for Laboratory Animals. Tumors were established by subcutaneously implanting 5×10^4 CT26 cells in suspension into the right flanks of mice. Tumor […] were calculated using the equation (l×w^2)/2, where l and w refer to the larger and smaller dimensions collected at each measurement. Treatments began at day 11 after cell implantation with tumor size around 40-100 mm^3. Mice (n=10/group) were treated with Compound A at 1 mg/kg, orally once a day for 21 days, or anti-mouse antibodies, rat-IgG2a and αPD-L1 (10F.9G2 clone) at 10 mg/kg, intraperitoneally (i.p.) twice weekly for three weeks. Tumors were monitored and each animal was euthanized when it's tumor reached the endpoint volume of 2000 mm^3, ulcerated, or on the final day (Day 21), whichever came first. Percent tumor growth inhibition (% TGI) was defined as the difference between the mean tumor volume (MTV) of the designated control group and the MTV of the drug-treated group, expressed as a percentage of the MTV of the designated control group: % TGI=[1−(MTVdrug-treated/MTVcontrol)]×100.
# Log-transformed tumor volume was analyzed using ANOVA, fitting a term for treatment. Differences between fitted treatment means were then calculated with associated raw p-values. […]
# pERK1/2 (T202/Y204) = assay: MAPK signaling inhibition in CT26 cells by western blot (pERK); type: cell-based, mouse; conditions: 24 hours
# Method: MAPK signaling inhibition by Compound A from CT 26 cells were determined by western blot analysis. CT26 cells were treated with Compound A in culture medium containing 10% FBS for 24 hours. Proteins were extracted for immunoblotting with anti-ERK1/2 and pERK1/2 (T202/Y204) from Santa Cruz Biotechnology. The membranes were developed with Odyssey Infrared Imaging System (LI-COR Biosciences).
# [1] = system: CT26 mouse colon carcinoma cells; assay: Cell growth inhibition of CT26 cells, CellTiter-Glo (CTG) assay; type: cell-based; conditions: 72 h, CT26 cells (KRAS G12D, MAPK1 and MET amplifications), 3 days, 10% FBS, read-out: IC50 value in cell proliferation inhibition
# Method: CT26 mouse colon carcinoma cells from American Type Culture Collection (ATCC, cat#CRL-2638, lot#59227052) were cultured in RPMI with 10% fetal bovine serum (FBS) media. Cell growth inhibition was determined via CellTiter-Glo® (CTG) assay (Promega) according to the manufacturer's protocol. Approximately 24 hours after plating, cells were exposed to Compound A with three-fold serial dilutions. Cells were incubated with the compound in culture medium containing 10% FBS for 3 days. IC50 values were interpolated using the method of Levenberg & Marquardt and the equation: y=Vmax−{1−[xn/(Kn+xn)]}, where ‘K’ is equal to IC50 (Mager M E, Data Analysis in Biochemistry and Biophysics. New York: Academic Press. 1972).
structure (smiles),measurement,setting,value
"CC(=O)Nc1cccc(-n2c(=O)n(C3CC3)c(=O)c3c(Nc4ccc(I)cc4F)n(C)c(=O)c(C)c32)c1 [Compound A, N-{3-[3-cyclopropyl-5-(2-fluoro-4-iodo-phenylamino)6,8-dimethyl-2,4,7-trioxo-3,4,6,7-tetrahydro-2H-pyrido[4,3-d]pyrimidin-1-yl]phenyl}acetamide]",TGI (tumor growth inhibition),CT26 tumors,61%
same,MAPK signaling inhibition measured by pERK,pERK1/2 (T202/Y204),dose dependent MAPK signaling inhibition
same,IC50,[1],20 nM
